# Experimental data reported in patent EP4389746A2, “P2X3 RECEPTOR ANTAGONISTS” (Recordati Industria Chimica E Farmaceutica SPA, priority 2022, dated 2024).
# Target: T1, human P2X3 receptor (Homo sapiens, UniProt P56373)
# T1 construct: expressed in transfected cells; host or cells: CHO-K1
# T1 sequence (P56373 1-397): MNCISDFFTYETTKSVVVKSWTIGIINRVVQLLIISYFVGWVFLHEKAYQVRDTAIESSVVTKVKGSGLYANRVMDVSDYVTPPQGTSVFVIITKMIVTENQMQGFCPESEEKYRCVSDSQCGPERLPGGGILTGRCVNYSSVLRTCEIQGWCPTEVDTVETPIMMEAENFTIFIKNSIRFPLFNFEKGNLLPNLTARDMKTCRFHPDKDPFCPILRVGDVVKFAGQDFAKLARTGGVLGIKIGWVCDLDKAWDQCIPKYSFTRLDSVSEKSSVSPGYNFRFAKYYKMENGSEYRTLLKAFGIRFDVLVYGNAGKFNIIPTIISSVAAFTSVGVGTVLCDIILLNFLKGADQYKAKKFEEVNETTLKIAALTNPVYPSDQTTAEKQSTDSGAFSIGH
# Assay: Calcium luminescence measurement: human P2X3 receptor activity inhibition (CHO-K1 cells, photoprotein readout, FLEXSTATION)
# Assay type: cell-based
# Conditions: CHO-K1 cells co-expressing human P2X3 and Ca2+ sensitive photoprotein; agonist α,β-Met-ATP; read-out: h-P2X3 IC50
# Description: Determination of human P2X3 receptor activity inhibition
# The assay for the human purinergic P2RX3 receptor has been adapted to the internal screening instrumentation using the FLEXSTATION as reader and a photoprotein as luminescent readout. The assay consists of CHO-K1 cells recombinantly co-expressing the human P2rx3 receptor and a Ca^2+ sensitive photoprotein. Cells are maintained in DMEM F-12 (1:1) mixture (LONZA cat. n° BE04-687F/U1) supplemented with 9 mL of 100 mM Sodium Pyruvate (LONZA cat. n° BE13-115E), 29 mL of 7.5% Sodium Bicarbonate (LONZA cat. n° BE17-613E), 5.5 mL of 1 M Hepes (LONZA cat. n° BE17-737E), 5 mL of 100X Penicillin/Streptomycin mixture (LONZA cat. n° DE17-602E) and 50 mL of Fetal Bovine Serum (Sigma cat. n° F7524), 1 mg/mL G418 disulfate salt (Sigma cat. n° G8168) and 5 µg/ml Puromycin dihydrochloride (Sigma cat. n° P9620). Standard propagation conditions consist of seeding in a P75 flask twice a week, recovering about 20×10^6 cells, corresponding to about 80% confluency. Cells were seeded into black-walled clear bottom 96 well plates at a density of 40000 cells/well in a complete medium. After 24 h the culture medium was replaced with 200 µL/well of coelenterazine in Tyrode's buffer (Standard Tyrode's buffer: in house solution, 130 mM NaCl, 5 mM KCl, 2 mM CaCl2, 5 mM NaHCO3, 1 mM MgCl2, 20 mM HEPES, pH 7.4). Coelenterazine was purchased from BIOSYNTH (cat. n° C-7001). 10 mM stock solution was prepared in DMSO and glutathione and stored at -20° C. The plates were incubated for 4 hours at 37°C, and injected with 10 µL/well of test compounds at 25X concentration in Tyrode's buffer. After 4 minutes a second injection of 50 µL/well of 5X α,β-Met-ATP in Tyrode's buffer (α,β-Met-ATP: from Tocris (cat. n° 3209), was dissolved at 100 mM in water and stored in aliquots at -20°C) was performed and the signal of the emitted luminescence was recorded by FLEXSTATION III (Molecular Devices). […]
# The inhibition curves of the tested compounds at cloned P2X3 receptor were determined by nonlinear regression analysis using software Prism 5.0 (Graphpad, San Diego, CA). The IC50 values and pseudo-Hill slope coefficients were estimated by the program.
row,Molecule,IC50 [µM]
1,"3-tert-Butyl-6-[(4-chlorophenyl)methyl] -8-[4-(hydroxymethyl)piperidin-1-yl]pyrido[2,3-e][1,2,4]triazolo[4,3-c]pyrimidin-5(6H)-one [Example 41]",0.0095
2,"CC(C)[C@H]1CN2C(=O)N(Cc3ccc(Cl)cc3)c3cc(N4CCOCC4)cnc3C2=N1 (single isomer, unassigned) [Example 10]",1.08
3,"CC(C)C1CN=C2c3ncc(N4CCOCC4)cc3N(Cc3ccc(Cl)cc3)C(=O)N21 (stereo not shown) [Example 1, 6-(4-Chlorobenzyl)-8-(morpholin-4-yl)-3-(propan-2-yl)-2,6-dihydroimidazo[1,2-c]pyrido[2,3-e]pyrimidin-5(3H)-one]",0.703
4,"CC1(C)CN2C(=O)N(Cc3ccc(Cl)cc3)c3cc(N4CCOCC4)cnc3C2=N1 [Example 2, 6-(4-Chlorobenzyl)-2,2-dimethyl-8-(morpholin-4-yl)-2,6-dihydroimidazo[1,2-c]pyrido[2,3-e]pyrimidin-5(3H)-one]",1.01
5,"CC(C)C1CN2C(=O)N(Cc3ccc(Cl)cc3)c3cc(N4CCC(N)CC4)cnc3C2=N1 (stereo not shown) [Example 7, 8-(4-Aminopiperidin-1-yl)-6-[(4-chlorophenyl)methyl]-2-(propan-2-yl)-2,6-dihydroimidazo[1,2-c]pyrido[2,3-e]pyrimidin-5(3H)-one]",0.642
6,"CC(C)C1CN2C(=O)N(Cc3ccc(Cl)cc3)c3cc(N4CCNCC4)cnc3C2=N1 (stereo not shown) [Example 8, 6-[(4-Chlorophenyl)methyl]-8-(piperazin-1-yl)-2-(propan-2-yl)-2,6-dihydroimidazo[1,2-c]pyrido[2,3-e]pyrimidin-5(3H)-one]",1.38
7,"CC(C)C1CN2C(=O)N(Cc3ccc(Cl)cn3)c3cc(N4CCOCC4)cnc3C2=N1 (stereo not shown) [Example 13, 6-[(5-Chloropyridin-2-yl)methyl]-8-(morpholin-4-yl)-2-(propan-2-yl)-2,6-dihydroimidazo[1,2-c]pyrido[2,3-e]pyrimidin-5(3H)-one]",0.865
8,"COc1ccc(CN2C(=O)N3CC(C(C)C)N=C3c3ncc(N4CCOCC4)cc32)nc1 (stereo not shown) [Example 14, 6-[(5-Methoxypyridin-2-yl)methyl]-8-(morpholin-4-yl)-2-(propan-2-yl)-2,6-dihydroimidazo[1,2-c]pyrido[2,3-e]pyrimidin-5(3H)-one]",0.822
9,"CC(C)C1CN2C(=O)N(Cc3ccc(Cl)cc3)c3cc(NC(CO)CO)cnc3C2=N1 (stereo not shown) [Example 15, 6-[(4-Chlorophenyl)methyl]-8-[(1,3-dihydroxypropan-2-yl)amino]-2-(propan-2-yl)-2,6-dihydroimidazo[1,2-c]pyrido[2,3-e]pyrimidin-5(3H)-one]",11.8
10,"CC(C)C1CN2C(=O)N(Cc3ccc(Cl)cc3)c3cc(NC4CCOCC4)cnc3C2=N1 (stereo not shown) [Example 16, 6-[(4-Chlorophenyl)methyl]-8-[(oxan-4-yl)amino]-2-(propan-2-yl)-2,6-dihydroimidazo[1,2-c]pyrido[2,3-e]pyrimidin-5(3H)-one]",0.872
11,"COc1ccc(Cn2c(=O)n3c(C(C)(C)OC)nnc3c3ncc(N4CCOCC4)cc32)cc1 [Example 33, 6-(4-Methoxybenzyl)-3-(2-methoxypropan-2-yl)-8-(morpholin-4-yl)pyrido[2,3-e][1,2,4]triazolo[4,3-c]pyrimidin-5(6H)-one]",0.301
12,"COc1ccc(Cn2c(=O)n3c(C(C)(C)C)nnc3c3ncc(N4CCC(OC)CC4)cc32)cc1 [Example 37, 3-tert-Butyl-6-[(4-methoxyphenyl)methyl] -8-(4-methoxypiperidin-1-yl)pyrido[2,3-e][1,2,4]triazolo[4,3-c]pyrimidin-5(6H)-one]",0.339
13,"CC(C)c1nnc2c3ncc(N4CCC(=O)CC4)cc3n(Cc3ccc(Cl)cc3)c(=O)n12 [Example 39, 6-[(4-Chlorophenyl)methyl]-8-(4-oxopiperidin-1-yl)-3-(propan-2-yl)pyrido[2,3-e][1,2,4]triazolo[4,3-c]pyrimidin-5(6H)-one]",1.26
14,"COc1ccc(Cn2c(=O)n3c(C(C)(C)C)nnc3c3ncc(N4CCC(N)CC4)cc32)cc1 [Example 40, 8-(4-Aminopiperidin-1-yl)-3-tert-butyl-6-[(4-methoxyphenyl)methyl]pyrido[2,3-e][1,2,4]triazolo[4,3-c]pyrimidin-5(6H)-one]",0.491
15,"COc1cc(Cn2c(=O)n3c(C(C)(C)C)nnc3c3ncc(N4CCOCC4)cc32)ccc1F [Example 42, 3-tert-Butyl-6-[(4-fluoro-3-methoxyphenyl)methyl] -8-(morpholin-4-yl)pyrido[2,3-e][1,2,4]triazolo[4,3-c]pyrimidin-5(6H)-one]",1.17
16,"COC(C)(C)c1nnc2c3nnc(N4CCN(C(=O)OC(C)(C)C)CC4)cc3n(Cc3ccc(Cl)cc3)c(=O)n12 [Example 45, tert-Butyl 4-{6-[(4-chlorophenyl)methyl]-3-(2-methoxypropan-2-yl)-5-oxo-5,6-dihydro[1,2,4]triazolo[4',3':1,6]pyrimido[5 ,4-c]pyridazin-8-yl}piperazine-1-carboxylate]",2.55
17,"COC(C)(C)c1nnc2c3nnc(N4CCNCC4)cc3n(Cc3ccc(Cl)cc3)c(=O)n12 [Example 46, 6-[(4-Chlorophenyl)methyl]-3-(2-methoxypropan-2-yl)-8-(piperazin-1-yl)[1,2,4]triazolo[4',3': 1,6]pyrimido[5,4-c]pyridazin-5(6H)-one]",0.322

# Continued, values first:
row,IC50 [µM],Molecule
1,0.113,"CC(C)[C@@H]1CN2C(=O)N(Cc3ccc(Cl)cc3)c3cc(N4CCOCC4)cnc3C2=N1 (single isomer, unassigned) [Example 11]"
2,0.0647,"CC(C)C1C(=O)N=C2c3ncc(N4CCOCC4)cc3N(Cc3ccc(Cl)cc3)C(=O)N21 (single isomer, unassigned) [Example 23, (R or S)-6-[(4-Chlorophenyl)methyl]-8-(morpholin-4-yl)-3-(propan-2-yl)imidazo[1,2-c]pyrido[2,3-e]pyrimidine-2,5(3H,6H)-dione]"
3,0.0562,"CC(C)C1C(=O)N=C2c3ncc(N4CCOCC4)cc3N(Cc3ccc(Cl)cc3)C(=O)N21 (single isomer, unassigned) [Example 24, (S or R)-6-[(4-Chlorophenyl)methyl]-8-(morpholin-4-yl)-3-(propan-2-yl)imidazo[1,2-c]pyrido[2,3-e]pyrimidine-2,5(3H,6H)-dione]"
4,0.0273,"COc1cc(CN2C(=O)N3CC(C(C)(C)C)N=C3c3ncc(N4CCOCC4)cc32)cc(OC)c1 (stereo not shown) [Example 3, 2-tert-Butyl-6-(3,5-dimethoxybenzyl)-8-(morpholin-4-yl)-2,6-dihydroimidazo[1,2-c]pyrido[2,3-e]pyrimidin-5(3H)-one]"
5,0.181,"CC(C)(C)C1CN2C(=O)N(Cc3ccc(Cl)cc3)c3cc(N4CCOCC4)cnc3C2=N1 (stereo not shown) [Example 4, 2-tert-Butyl-6-(4-chlorobenzyl)-8-(morpholin-4-yl)-2,6-dihydroimidazo[1,2-c]pyrido[2,3-e]pyrimidin-5(3H)-one]"
6,0.054,"CC(C)(CO)C1CN2C(=O)N(Cc3ccc(Cl)cc3)c3cc(N4CCOCC4)cnc3C2=N1 (stereo not shown) [Example 12, 6-(4-Chlorobenzyl)-2-(1-hydroxy-2-methylpropan-2-yl)-8-(morpholin-4-yl)-2,6-dihydroimidazo[1,2-c]pyrido[2,3-e]pyrimidin-5(3H)-one]"
7,0.123,"CC(C)C1C(=O)N=C2c3ncc(N4CCC(=O)CC4)cc3N(Cc3ccc(Cl)cc3)C(=O)N21 (stereo not shown) [Example 25, 6-[(4-Chlorophenyl)methyl]-8-(4-oxopiperidin-1-yl)-3-(propan-2-yl)imidazo[1,2-c]pyrido[2,3-e]pyrimidine-2,5(3H,6H)-dione]"
8,0.242,"COC(C)(C)c1nnc2c3nnc(N4CCN(C(C)=O)CC4)cc3n(Cc3ccc(Cl)cc3)c(=O)n12 [Example 47, 8-(4-Acetylpiperazin-1-yl) -6-[(4-chlorophenyl)methyl]-3-(2-methoxypropan-2-yl)[1,2,4]triazolo[4',3': 1,6]pyrimido[5,4-c]pyridazin-5(6H)-one]"
